Results reported in patent US7109193B2, “Tricyclic diazepines tocolytic oxytocin receptor antagonists” (Wyeth, priority 2001, dated 2006).

Biological target: T1, human vasopressin V2 receptor subtype (Homo sapiens, UniProt P30518)
T1 construct: host or cells: CHO cells (pZeoSV vector)
Assay: Vasopressin binding in Chinese Hamster Ovary cell membranes expressing human vasopressin V2 subtype receptors
Settings: 100 nM, CHO cell membranes, [3H]arginine vasopressin, values without parentheses
Description: Vasopressin Binding in Chinese Hamster Ovary Cell Membranes Expressing Human Vasopressin V2 Subtype Receptors
Chinese Hamster Ovary (CHO) cells stably transfected with the human V2 subtype receptors were obtained from M. Thibonnier, Case Western Reserve University School of Medicine, Cleveland, Ohio.
A. Passaging and Amplification of Cells:
The trypsin is removed by aspiration and the cells dislodged by tapping. Cell Culture medium (e.g. 30 mL for 1:30 split) is immediately added and mixed well to inactivate trypsin. 1 mL of detached cells is added to new culture flasks containing fresh Cell Culture medium (e.g. into 25 mL per T-150 flask), and mixed gently. The cells are incubated at 37° C. in 5% CO2. The medium is changed at 3 to 4 day interval (or as appropriate). […] All steps are done under sterile conditions. B. Membrane Preparation: The cells are washed twice gently with Hank's Balanced Salt solution (e.g. use 10 mL per T-150 flask). […] The contents are transferred to centrifuge tubes (50 mL) kept in ice bath. All subsequent steps are done at 4° C. The tubes are centrifuged at 300×g for 15 min (1380 rpm on SORVAL, Model RT6000D, using the rotor for 50 mL tubes). The supernatant is discarded and the cells suspended in homogenizing buffer (10 mM Tris-HCl containing 0.25 M sucrose and 1 mM EDTA, pH 7.4) ensuring that the volume of the buffer is about ten times the volume of the cell pellet. The cells are pooled into a centrifuge tube (50 mL) and homogenized with a Polytron at setting 6 for 10 sec. The homogenate is transferred into a Potter-Elvjehm homogenizer and homogenized with 3 strokes. The homogenate is centrifuged at 1500×g for 60 min at 4° C. (3100 rpm using SORVAL, model RT6000D, using the rotor for 50 mL tubes). The pellet is discarded. The supernatant is centrifuged at 100,000×g for 60 min. at 4° C. (Beckman L8-80M ultracentrifuge; spin at 37,500 rpm with rotor type 70 Ti for 50 mL tubes; 38,000 rpm with type 80Ti for 15 mL tubes; or 35,800 rpm with rotor type 45Ti). The supernantant is discarded and the pellet suspended in 3 to 4 mL of Tris buffer (50 mM TRIS-HCl, pH 7.4). The protein content is estimated by the Bradford or Lowry method. The volume of the membrane suspension is adjusted with the membrane buffer (50 mM Tris-HCl containing 0.1% BSA and 0.1 mM PMSF) to give 3.0 mg/mL (or as appropriate) of protein. The membranes are aliquoted and stored at −70° C. C. Radioligand Binding Assay: In wells of a 96-well format microtiter plate, is added 90, 110 or 130 μL (to make up a final volume of 200 μL) of assay buffer containing 50 mM of Tris-HCl (pH 7.4), […], 1 mg % aprotinin, 1 mg % leupeptin, 2 mg % 1,10-phenanthroline, 10 mg % trypsin inhibitor, and 0.1 mM PMSF. The inhibitors are added on the day of the experiment. The components are mixed at room temperature, and then kept in ice bath following adjustment of the pH to 7.4. […] For vasopressin and other peptide ligands 20 μL of 50% DMSO is added and the assay buffer volume is adjusted accordingly. To each well is added 50 μL of frozen membrane suspension thawed immediately prior to use and diluted in assay buffer to the required concentration (equivalent to 25 to 50 μg of protein/well as needed). 20 μL of 8 nM [^3H]arginine vasopressin ligand in the assay buffer, prepared just before use is added and incubated at room temperature for 60 min. shaking the plate on a mechanical shaker for the first 15 min. The incubation is stopped by rapid filtration of the plate contents followed by wash with ice-cold buffer (50 mM Tris-HCl, pH 7.4) using a cell harvester (Tomtek and Printed filtermat-B filter paper). The filter paper is thoroughly dried (7–12 min. in a microwave oven) and impregnated with MeltiLex B/H melt-on scintillation wax sheets and the radioactivity counted in a betaplate scintillation counter.

T1 sequence (P30518 whole entry): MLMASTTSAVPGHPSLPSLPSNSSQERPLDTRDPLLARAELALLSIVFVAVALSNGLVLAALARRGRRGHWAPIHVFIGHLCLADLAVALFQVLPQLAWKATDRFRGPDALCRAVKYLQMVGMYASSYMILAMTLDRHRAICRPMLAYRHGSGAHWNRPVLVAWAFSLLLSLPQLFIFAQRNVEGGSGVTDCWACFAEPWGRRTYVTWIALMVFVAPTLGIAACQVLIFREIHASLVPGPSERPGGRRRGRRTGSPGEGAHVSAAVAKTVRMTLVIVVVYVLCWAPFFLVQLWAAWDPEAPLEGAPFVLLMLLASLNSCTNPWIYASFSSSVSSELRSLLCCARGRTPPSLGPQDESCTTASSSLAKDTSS

`O=C(NCCCn1ccnc1)c1ccc2n1Cc1ccccc1N(C(=O)c1ccc(-c3cccc4ccccc34)cc1Cl)C2` [Example 134, 10-[2-Chloro-4-(1-naphthyl)benzoyl]-N-[3-(1H-imidazol-1-yl)propyl]-10,11-dihydro-5H-pyrrolo[2,1-c][1,4]benzodiazepine-3-carboxamide] was tested, and the inhibition at 0.1 µM was 16%.
`COc1ccccc1-c1ccc(C(=O)N2Cc3ccc(C(=O)N4CCC(N5CCCCC5)CC4)n3Cc3ccccc32)cc1C` [Example 112, {10-[(2-Methyl-2′-methoxy[1,1′-biphenyl]-4-yl)carbonyl]-10,11-dihydro-5H-pyrrolo[2,1-c][1,4]benzodiazepin-3-yl}[4-(1-piperidinyl)-1-piperidinyl]methanone] was tested, and the inhibition at 0.1 µM was 32%.
With `COc1ccccc1-c1ccc(C(=O)N2Cc3ccc(C(=O)NCCN4CCCCC4)n3Cc3ccccc32)cc1` [Example 152, 10-[(2′-Methoxy[1,1′-biphenyl]-4-yl)carbonyl]-N-[2-(1-piperidinyl)ethyl]-10,11-dihydro-5H-pyrrolo[2,1-c][1,4]benzodiazepine-3-carboxamide] the inhibition at 0.1 µM was 10%.
Work on `COc1cc(C(=O)N2Cc3ccc(C(=O)NCCCn4ccnc4)n3Cc3ccccc32)ccc1-c1ccccc1C` [Example 128, N-[3-(1H-Imidazol-1-yl)propyl]-10-[(2-methoxy-2′-methyl[1,1′-biphenyl]-4-yl)carbonyl]-10,11-dihydro-5H-pyrrolo[2,1-c][1,4]benzodiazepine-3-carboxamide] yielded an inhibition at 0.1 µM of 17%.
For `Cc1cc(C(=O)N2Cc3ccc(C(=O)N(CCCN(C)C)CCCN(C)C)n3Cc3ccccc32)ccc1-c1ccccc1C(F)(F)F` [Example 3, 10-[(2-Methyl-2′-trifluoromethyl-[1,1′-biphenyl]-4-yl)-carbonyl]-10,11-dihydro-5H-pyrrolo[2,1-c][1,4]benzodiazepine-3-carboxylic acid bis-(3-dimethylamino-propyl)-amide], the inhibition at 0.1 µM was 22%.
With `Cc1ccccc1-c1ccc(C(=O)N2Cc3ccc(C(=O)N4CCC[C@H]4CN4CCCC4)n3Cc3ccccc32)cc1C` [Example 260, {10-[(2,2′-Dimethyl[1,1′-biphenyl]-4-yl)carbonyl]-10,11-dihydro-5H-pyrrolo[2,1-c][1,4]benzodiazepin-3-yl}[(2S)-2-(1-pyrrolidinylmethyl)pyrrolidinyl]methanone] the “V2 % inhibition @ 100 nM” value was 20%.
In the case of `COC(=O)c1ccc2c(c1)N(C(=O)c1ccc(-c3ccccc3C(F)(F)F)c(C)c1)Cc1cccn1C2` [Example 26, Methyl 10-{[2-methyl-2′-trifluoromethyl-[1,1′-biphenyl]-4-yl]carbonyl}-10,11-dihydro-5H-pyrrolo[2,1-c][1.4]benzodiazepine-8-carboxylate], the “V2 % inhibition @ 100 nM” value is reported as 3%.
`COc1ccccc1-c1ccc(C(=O)N2Cc3ccc(C(=O)NCCCn4ccnc4)n3Cc3ccccc32)cc1C` [Example 123, N-[3-(1H-Imidazol-1-yl)propyl]-10-[(2′-methoxy-2-methyl[1,1′-biphenyl]-4-yl)carbonyl]-10,11-dihydro-5H-pyrrolo[2,1-c][1,4]benzodiazepine-3-carboxamide] was tested, and the inhibition at 0.1 µM was 15%.
For `COc1ccccc1-c1ccc(C(=O)N2Cc3ccc(C(=O)N4CCC[C@H]4CN4CCCC4)n3Cc3ccccc32)cc1` [Example 265, {10-[(2′-Methoxy[1,1′-biphenyl]-4-yl)carbonyl]-10,11-dihydro-5H-pyrrolo[2,1-c][1,4]benzodiazepin-3-yl}[(2S)-2-(1-pyrrolidinylmethyl)pyrrolidinyl]methanone], the “V2 % inhibition @ 100 nM” value was 10%.
`COc1cc(C(=O)N2Cc3ccc(C(=O)N4CCC[C@H]4CN4CCCC4)n3Cc3ccccc32)ccc1-c1ccccc1C` [Example 266, {10-[(2-Methoxy-2′-methyl[1,1′-biphenyl]-4-yl)carbonyl]-10,11-dihydro-5H-pyrrolo[2,1-c][1,4]benzodiazepin-3-yl}[(2S)-2-(1-pyrrolidinylmethyl)pyrrolidinyl]methanone] was tested, and the “V2 % inhibition @ 100 nM” value was −17%.
With `COc1cccc(-c2cc(OC)c(C(=O)N3Cc4ccc(C(=O)N5CCC(N6CCCCC6)CC5)n4Cc4ccccc43)cc2Cl)c1` [Example 117, {10-[(6-Chloro-3-methoxy-3′-methoxy[1,1′-biphenyl]-4-yl)carbonyl]-10,11-dihydro-5H-pyrrolo[2,1-c][1,4]benzodiazepin-3-yl}[4-(1-piperidinyl)-1-piperidinyl]methanone] the inhibition at 0.1 µM was 14%.
`COc1cc2c(cc1OC)N(C(=O)c1ccc(-c3ccccc3C(F)(F)F)c(C)c1)Cc1ccc(C(=O)N(C)CCCN(C)C)n1C2.Cl` [Example 13, N-Methyl-[N-(3-dimethylamino)propyl]-7,8-dimethoxy-10-{[2-methyl-2′-(trifluoromethyl)[1,1′-biphenyl]-4-yl]carbonyl}-10,11-dihydro-5H-pyrrolo[2,1-c][1,4]benzodiazepine-3-carboxamide hydrochloride salt] was tested, and the “V2 % inhibition @ 100 nM” value was −4%.
For `CN(C)CCCN(C)C(=O)c1ccc2n1Cc1ccccc1N(C(=O)c1ccc(-c3cccc4ccccc34)cc1Cl)C2` [Example 109, 10-[2-Chloro-4-(1-naphthyl)benzoyl]-N-[3-(dimethylamino)propyl]-N-methyl-10,11-dihydro-5H-pyrrolo[2,1-c][1,4]benzodiazepine-3-carboxamide], the inhibition at 0.1 µM was 14%.
For `Cc1ccccc1-c1ccc(C(=O)N2Cc3ccc(C(=O)N4CCC(N5CCCCC5)CC4)n3Cc3ccccc32)cc1C` [Example 113, {10-[(2-Methyl-2′-methyl[1,1′-biphenyl]-4-yl)carbonyl]-10,11-dihydro-5H-pyrrolo[2,1-c][1,4]benzodiazepin-3-yl}[4-(1-piperidinyl)-1-piperidinyl]methanone], the inhibition at 0.1 µM was 9%.
`COc1cccc(-c2ccc(C(=O)N3Cc4ccc(C(=O)N5CCN(CCN(C)C)CC5)n4Cc4ccccc43)cc2C)c1` [Example 199, {4-[2-(Dimethylamino)ethyl]-1-piperazinyl{}10-[(3′-methoxy-2-methyl[1,1′-biphenyl]-4-yl)carbonyl]-10,11-dihydro-5H-pyrrolo[2,1-c][1,4]benzodiazepin-3-yl}methanone] was tested, and the “V2 % inhibition @ 100 nM” value was 6%.
With `COc1cc(C(=O)N2Cc3ccc(C(=O)N4CCC(N5CCCC5)CC4)n3Cc3ccccc32)ccc1-c1ccccc1C` [Example 142, {10-[(2-Methoxy-2′-methyl[1,1′-biphenyl]-4-yl)carbonyl]-10,11-dihydro-5H-pyrrolo[2,1-c][1,4]benzodiazepin-3-yl}[4-(1-pyrrolidinyl)-1-piperidinyl]methanone] the inhibition at 0.1 µM was -5%.
Work on `COc1cc(C(=O)N2Cc3ccc(C(=O)N4CCC(N5CCCCC5)CC4)n3Cc3ccccc32)ccc1-c1cccc2ccccc12` [Example 118, {10-[3-Methoxy-4-(1-naphthyl)-benzoyl]-10,11-dihydro-5H-pyrrolo[2,1-c][1,4]benzodiazepin-3-yl}[4-(1-piperidinyl)-1-piperidinyl]methanone] yielded an inhibition at 0.1 µM of 39%.
In the case of `COc1ccccc1-c1ccc(C(=O)N2Cc3ccc(C(=O)N4CCC[C@H]4CN4CCCC4)n3Cc3ccccc32)cc1C` [Example 259, {10-[(2′-Methoxy-2-methyl[1,1′-biphenyl]-4-yl)carbonyl]-10,11-dihydro-5H-pyrrolo[2,1-c][1,4]benzodiazepin-3-yl}[(2S)-2-(1-pyrrolidinylmethyl)pyrrolidinyl]methanone], the “V2 % inhibition @ 100 nM” value is reported as −3%.
